Values joined by “and” are separate entries in the source; they are usually repeats but may differ in a detail not shown here. Equal entries are not always repeated.
Tests used:
Bcrp1 = conditions: mouse Bcrp1; cited from earlier work
P-glycoprotein = P-glycoprotein (Homo sapiens, UniProt P08183); test: Bidirectional transwell substrate assay, MDCK cells expressing P-glycoprotein; conditions: for P (A > B): apical to basolateral; for P (B > A): basolateral to apical; for P-glycoprotein substrate status: human P-glycoprotein MDCK cells vs wildtype
Chain of P-glycoprotein (P08183 whole entry): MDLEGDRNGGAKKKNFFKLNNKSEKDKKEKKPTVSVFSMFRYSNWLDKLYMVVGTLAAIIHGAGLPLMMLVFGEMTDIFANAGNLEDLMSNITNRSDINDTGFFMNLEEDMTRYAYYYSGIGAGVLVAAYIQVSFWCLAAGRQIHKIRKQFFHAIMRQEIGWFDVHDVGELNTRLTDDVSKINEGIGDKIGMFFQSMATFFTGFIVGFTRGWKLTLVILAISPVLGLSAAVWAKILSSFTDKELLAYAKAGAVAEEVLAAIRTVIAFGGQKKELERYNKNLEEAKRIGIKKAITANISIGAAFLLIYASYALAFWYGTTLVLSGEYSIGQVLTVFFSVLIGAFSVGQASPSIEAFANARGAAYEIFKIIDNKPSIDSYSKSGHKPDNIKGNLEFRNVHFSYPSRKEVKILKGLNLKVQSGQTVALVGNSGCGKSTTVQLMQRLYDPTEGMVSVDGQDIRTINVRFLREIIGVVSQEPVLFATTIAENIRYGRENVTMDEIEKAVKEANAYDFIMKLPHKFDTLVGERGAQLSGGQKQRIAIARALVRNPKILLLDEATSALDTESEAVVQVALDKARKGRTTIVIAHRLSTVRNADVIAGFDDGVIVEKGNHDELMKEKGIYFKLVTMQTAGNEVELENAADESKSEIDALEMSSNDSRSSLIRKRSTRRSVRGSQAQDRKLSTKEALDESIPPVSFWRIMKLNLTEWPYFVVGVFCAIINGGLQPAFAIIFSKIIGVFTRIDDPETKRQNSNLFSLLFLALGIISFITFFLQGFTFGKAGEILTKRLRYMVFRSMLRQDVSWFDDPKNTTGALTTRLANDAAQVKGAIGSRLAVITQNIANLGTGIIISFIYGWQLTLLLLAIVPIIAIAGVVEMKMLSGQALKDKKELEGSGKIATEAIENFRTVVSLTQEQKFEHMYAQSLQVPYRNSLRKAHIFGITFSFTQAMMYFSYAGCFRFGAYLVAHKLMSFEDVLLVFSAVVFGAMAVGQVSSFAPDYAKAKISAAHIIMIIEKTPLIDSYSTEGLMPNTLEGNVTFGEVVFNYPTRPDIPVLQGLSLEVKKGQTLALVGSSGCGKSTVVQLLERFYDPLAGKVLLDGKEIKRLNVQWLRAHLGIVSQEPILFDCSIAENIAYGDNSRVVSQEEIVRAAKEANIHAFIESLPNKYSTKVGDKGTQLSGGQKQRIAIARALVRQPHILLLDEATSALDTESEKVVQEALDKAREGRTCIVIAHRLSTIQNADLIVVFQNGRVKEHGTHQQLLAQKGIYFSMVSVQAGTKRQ
Method: (§1) We first aimed to determine whether the cannabinoids found in the full-spectrum cannabis extract were substrates of P-glycoprotein and BCRP by using MDCK cells expressing human P-glycoprotein or BCRP in vitro. Transwell assays were conducted to assess bidirectional transport of the cannabinoids detected in plasma following administration of the full-spectrum cannabis extract (CBD, CBDA, CBDVA, CBGA, Δ^9-THC and Δ^9-THCA), including the respective neutral compounds (CBDV and CBG) across wildtype, BCRP and P-glycoprotein MDCK cell monolayers. […] BCRP and P-glycoprotein preferentially transport substrates in the B > A direction.
(§2) Media in the donor chamber was then replaced with that containing 10 µM of an individual cannabinoid in the presence of either vehicle or inhibitor and returned to 37 °C. Aliquots (25 or 50 µL) were removed from the accepter chamber at 60, 120, 180 and 240 min.
(§3) Cannabinoids were analyzed as described above.

BCRP [1] = target: T1, BCRP (Homo sapiens, UniProt Q9UNQ0); test: Inhibition of BCRP-mediated transport of CBDA by cannabinoids (transwell, BCRP MDCK cells); conditions: 10 µM
T1 sequence (Q9UNQ0 1-655): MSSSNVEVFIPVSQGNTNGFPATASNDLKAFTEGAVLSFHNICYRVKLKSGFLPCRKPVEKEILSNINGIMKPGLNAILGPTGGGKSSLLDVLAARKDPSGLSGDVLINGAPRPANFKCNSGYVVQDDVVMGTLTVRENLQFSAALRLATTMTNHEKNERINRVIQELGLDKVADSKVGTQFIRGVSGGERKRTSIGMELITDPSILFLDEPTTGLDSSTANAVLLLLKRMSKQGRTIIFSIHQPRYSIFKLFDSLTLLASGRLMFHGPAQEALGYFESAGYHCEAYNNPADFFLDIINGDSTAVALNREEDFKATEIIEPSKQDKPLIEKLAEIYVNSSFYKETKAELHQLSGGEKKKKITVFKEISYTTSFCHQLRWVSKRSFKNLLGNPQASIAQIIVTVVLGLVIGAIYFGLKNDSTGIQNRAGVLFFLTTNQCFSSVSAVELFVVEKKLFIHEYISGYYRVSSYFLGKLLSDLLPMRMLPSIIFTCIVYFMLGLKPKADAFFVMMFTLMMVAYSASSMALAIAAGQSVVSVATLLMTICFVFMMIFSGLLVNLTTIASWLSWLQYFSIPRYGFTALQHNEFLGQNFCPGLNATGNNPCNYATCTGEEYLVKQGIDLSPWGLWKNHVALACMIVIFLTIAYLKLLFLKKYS
Method: Cannabinoids were tested at 10 µM. […] Data are expressed as means ± SEM, with n = 4 per time point. […] Schematic created using BioRender.com.
as §3

wildtype MDCK cells = test: Bidirectional transwell transport assay, wildtype MDCK cell monolayers; conditions: wildtype MDCK cells, 10 µM cannabinoid, apical to basolateral
Method: as §1, §2, §3

[2] = as above; conditions: dog, MDCK
Method: as §1, §2, §3

[3] = Pharmacokinetic study: plasma cannabinoids after single oral gavage of full-spectrum cannabis extract or individual cannabinoid; conditions: for Cmax / AUC / half-life / tmax: both, mouse, plasma, po; for half-life: t1/2, mouse plasma; for Detection in plasma following oral administration of the full-spectrum extract: single oral dose of extract
Method: Drugs were administered by oral gavage in a volume of 5 mL/kg. Wildtype male and female mice (postnatal day 21–28, P21-28) received a single oral gavage of either the full-spectrum cannabis extract or an individual cannabinoid. Cannabinoid doses within the full-spectrum extract or as an individual cannabinoid were as follows in mg/kg: CBDA and Δ^9-THCA, 50; CBD, 25; Δ^9-THC, 15; CBC, 9; CBDVA and CBGA, 7; CBN, 2.5; CBG, 1.5; CBDV and Δ^9-THCV, < 1 (Fig. 1a). At selected time points (15–240 min), mice were anesthetized with isoflurane and whole blood was collected by cardiac puncture. Plasma was isolated by centrifugation (9000 g for 10 min, 4 °C) and stored at − 80 °C until assayed.
Concentrations of cannabinoids in plasma samples were quantified as described previously, [24], [58]. […] The organic layer was isolated by centrifugation (4000 g for 10 min) and evaporated to dryness with N2. Samples were reconstituted in acetonitrile and 0.1% formic acid in water (1:3.3, v/v) for supported-liquid extraction (SLE) with methyl tert-butyl ether (MTBE) using Biotage Isolute SLE+ columns (Uppsala, SWE). […] Quantification of cannabinoids was achieved by comparing samples to standards prepared with known amounts of drug.
Plasma concentrations at each time point were averaged and pharmacokinetic parameters were calculated by noncompartmental analysis. Elimination rate constants were determined by linear regression of the terminal component of the concentration–time curve using GraphPad Prism 8.2 (La Jolla, USA). The log-linear trapezoidal method was used to calculated total drug exposure (area under concentration–time curve) using equations described previously.

BCRP [4] = target: T1, BCRP; test: Bidirectional transwell substrate assay, MDCK cells expressing BCRP (with or without elacridar); conditions: for P (A > B): apical to basolateral; for P (B > A): basolateral to apical; for BCRP substrate status: human BCRP MDCK cells vs wildtype, with elacridar control; for efflux ratio at 240 min, 10 µM: human, r (transport efflux ratio)
Method: as §1, §2, §3

BCRP [5] = target: T1, BCRP; test: Inhibition of BCRP-mediated transport of prazosin (transwell, BCRP MDCK cells); conditions: 10 µM, compared to vehicle
[6] = design: method as in PMID 33155722; conditions: healthy individuals, oral cannabis decoction and oil containing 3–6 times the amount of CBDA compared to CBD; cited from earlier work
[7] = P-glycoprotein MDCK cells, 10 µM cannabinoid
[8] = mouse plasma, oral, administered as individual cannabinoid, doses mg/kg: CBD 25, CBDA 50, CBDVA 7, THC 15, THCA 50
[9] = mouse plasma, oral, administered in full-spectrum extract, doses mg/kg: CBD 25, CBDA 50, CBDVA 7, CBGA 7, THC 15, THCA 50
[10] = oral, administered as individual cannabinoid, doses mg/kg: CBD 25, CBDA 50, CBDVA 7, THC 15, THCA 50
[11] = oral, administered in full-spectrum extract, doses mg/kg: CBD 25, CBDA 50, CBDVA 7, CBGA 7, THC 15, THCA 50
[12] = mouse plasma, oral, administered as individual cannabinoid, doses mg/kg: CBD 25, CBDA 50, CBDVA 7, CBGA 7, THC 15, THCA 50
[13] = BCRP MDCK cells, 10 µM cannabinoid
[14] = BCRP MDCK cells, 10 µM cannabinoid, substrate threshold 1.5
[15] = with elacridar 10 µM, BCRP MDCK cells, 10 µM cannabinoid in the presence of 10 µM elacridar

SMILES: C=C(C)[C@@H]1CCC(C)=C[C@H]1c1c(O)cc(CCCCC)cc1O [CBD, cannabidiol]
- Bcrp1 substrate status (Bcrp1): not a substrate of mouse Bcrp1
- P (A > B) (P-glycoprotein; [7]): 25 ± 7 × 10^−5 cm/s
- P (B > A) (P-glycoprotein; [7]): 15 ± 3 × 10^−5 cm/s
- P-glycoprotein substrate status (P-glycoprotein): not P-glycoprotein substrates
- Effect on BCRP-mediated transport of CBDA (BCRP [1]; BCRP MDCK cells, compared to vehicle): Neither CBD nor CBDVA affected CBDA transport via BCRP
- r (transport efflux ratio) of CBDA in the presence of inhibitor (BCRP [1]; human, 240 min): 5.9 ± 0.1
- P (A > B) (wildtype MDCK cells): 41 ± 5 × 10^−5 cm/s
- Papp B→A at 240 min, 10 µM [2]: 250 ± 30 ×10⁻⁶ cm/s
- efflux ratio at 240 min, 10 µM [2]: 0.6 ± 0.2
- Cmax ([3]; 25 mg/kg, mouse plasma, oral, administered as individual cannabinoid, doses mg/kg: CBD 25, THC 15, THCA 50): 304 ± 28 ng/mL
- Cmax ([3]; 25 mg/kg, mouse plasma, oral, administered in full-spectrum extract, doses mg/kg: CBD 25, THC 15, THCA 50): 60 ± 6 ng/mL
- AUC [3, 8]: 1730 ng·h/mL
- AUC [3, 9]: 717 ng·h/mL
- half-life [3, 10]: 3.62 h
- half-life [3, 11]: 8.07 h
- tmax [3, 12]: 1.5 h
- tmax [3, 9]: ≤ 1 h
- Total plasma exposure in full-spectrum extract relative to individual compound, fold lower ([3]; mouse plasma, oral, equivalent doses): 2–4 ×
- Detection in plasma following oral administration of the full-spectrum extract ([3]; mouse plasma): detected
- P (A > B) (BCRP [4]; [13]): 52 ± 8 × 10^−5 cm/s
- P (B > A) (BCRP [4]; [13]): 86 ± 20 × 10^−5 cm/s
- r (transport efflux ratio) (BCRP [4]; [14]): 1.6 ± 0.3
- BCRP substrate status (BCRP [4]): BCRP substrates
- efflux ratio at 240 min, 10 µM (BCRP [4]; [14]): > 1.5
- efflux ratio at 240 min, 10 µM (BCRP [4]; [15]): 1 ± 0.2
- Effect on BCRP-mediated transport of prazosin (BCRP [5]): identified as an inhibitor of BCRP

SMILES: C=C(C)[C@@H]1CCC(C)=C[C@H]1c1c(O)cc(CCCCC)c(C(=O)O)c1O [CBDA, cannabidiolic acid]
- P (A > B) (P-glycoprotein; [7]): 24 ± 7 × 10^−5 cm/s
- P (B > A) (P-glycoprotein; [7]): 38 ± 4 × 10^−5 cm/s
- r (transport efflux ratio) (P-glycoprotein; P-glycoprotein MDCK cells, 10 µM cannabinoid, substrate threshold 2.5): 1.5 ± 0.3
- P-glycoprotein substrate status (P-glycoprotein): not P-glycoprotein substrates
- efflux ratio at 240 min, 10 µM (P-glycoprotein; human, MDCK-MDR1, r (transport efflux ratio), P-glycoprotein MDCK cells, 10 µM cannabinoid, substrate threshold 2.5): < 2.5
- P (A > B) (wildtype MDCK cells): 31 ± 8 × 10^−5 cm/s
- Papp B→A at 240 min, 10 µM [2]: 370 ± 90 ×10⁻⁶ cm/s
- efflux ratio at 240 min, 10 µM [2]: 1.2 ± 0.3
- AUC [3, 8]: 27300 ng·h/mL
- AUC [3, 9]: 380000 ng·h/mL
- Cmax ([3]; mouse plasma, oral, administered as individual cannabinoid, doses mg/kg: CBDA 50, CBDVA 7, CBGA 7): 6000 ± 1000 ng/mL
- Cmax ([3]; mouse plasma, oral, administered in full-spectrum extract, doses mg/kg: CBDA 50, CBDVA 7, CBGA 7): 47000 ± 4000 ng/mL
- half-life [3, 10]: 3.3 h
- half-life [3, 11]: 5.17 h
- tmax [3, 12]: 1.5 h
- tmax [3, 9]: ≤ 1 h
- Total plasma exposure (AUC) in full-spectrum extract relative to individual compound, fold higher ([3]; mouse plasma, oral, 50 mg/kg, equivalent doses): ~14 × and 14 ×
- Detection in plasma following oral administration of the full-spectrum extract ([3]; mouse plasma): detected
- P (A > B) (BCRP [4]; [13]): 38 ± 11 × 10^−5 cm/s
- P (B > A) (BCRP [4]; [13]): 162 ± 24 × 10^−5 cm/s
- BCRP substrate status (BCRP [4]): BCRP substrates
- efflux ratio at 240 min, 10 µM (BCRP [4]; [15]): 0.4 ± 0.4
- Serum CBDA concentrations relative to serum CBD concentrations [6]: 20–30 times

Source: PMC8298633, “Cannabis constituents interact at the drug efflux pump BCRP to markedly increase plasma cannabidiolic acid concentrations” (Scientific Reports, 2021)
